Measurements taken from ChEMBL document CHEMBL1122549, “Opioid agonists and antagonists. 6,6-Hydrazi and 6-oximino derivatives of 14-hydroxydihydromorphinones” (1984).

Assays:
Assay type in all cases: functional
Mus musculus [1] = assay: Compound was evaluated in vivo for the antagonist activity by the tail flick assay using morphine as the agonist in mice
Mus musculus [2] = assay: Compound was evaluated in vivo for the agonist activity after subcutaneous administration as aqueous solutions of HCl salt in mice using Hot plate assay; settings: sc
Mus musculus [3] = assay: Compound was evaluated in vivo for the agonist activity after subcutaneous administration as aqueous solutions of HCl salt in mice using Tail flick assay; settings: sc
Mus musculus [4] = assay: Compound was evaluated in vivo for the agonist activity after subcutaneous administration as aqueous solutions of HCl salt in mice using Phenylquinone (PPQ) writhing assay; settings: sc
Mus musculus [5] = assay: Compound was evaluated in vivo for the agonist activity after subcutaneous administration as aqueous solutions of HCl salt in mice using Nilsen assay; settings: sc
Mus musculus [6] = assay: Compound was evaluated in vivo for the antagonist activity by the tail flick assay using morphine as the agonist in mice.
Mus musculus [7] = assay: Compound was evaluated in vivo for the agonist activity after subcutaneous administration as aqueous solutions of HCl salt in mice using Nilsen assay.; settings: sc

SMILES	ED50 (Mus musculus [1]) [mg/kg]	ED50 (Mus musculus [2]) [mg/kg]	ED50 (Mus musculus [3]) [mg/kg]	ED50 (Mus musculus [4]) [mg/kg]	ED50 (Mus musculus [6]) [mg/kg]	other results
CO/N=C1\CCC2(O)C3Cc4ccc(O)c5c4C2(CCN3CC2CC2)C1O5 (centres undefined)	0.08	–	–	–	–	–
CN1CCC23c4c5ccc(O)c4OC2C2(CCC3(O)C1C5)NN2 (centres undefined)	–	0.81	0.7	0.05	–	ED50 (Mus musculus [5]): 2 mg/kg
Oc1ccc2c3c1OC1C4(CCC5(O)C(C2)N(CC2CC2)CCC315)NN4 (centres undefined)	–	–	–	–	0.02	–
CN1CCC23c4c5ccc(O)c4OC2/C(=N/O)CCC3(O)C1C5 (centres undefined)	–	0.56	2.2	0.1	–	ED50 (Mus musculus [7]): 0.45 mg/kg
O/N=C1\CCC2(O)C3Cc4ccc(O)c5c4C2(CCN3CC2CC2)C1O5 (centres undefined)	–	–	–	–	0.08	–
C=CCN1CCC23c4c5ccc(O)c4OC2/C(=N/O)CCC3(O)C1C5 (centres undefined)	0.06	–	–	–	–	–
CO/N=C1\CCC2(O)C3Cc4ccc(O)c5c4C2(CCN3C)C1O5 (centres undefined)	–	0.22	0.08	0.02	–	–
C=CCN1CCC23c4c5ccc(O)c4OC2/C(=N/OC)CCC3(O)C1C5 (centres undefined)	1.9	–	–	–	–	–
CN1CC[C@]23c4c5ccc(O)c4O[C@H]2[C@@H](O)CC[C@H]3[C@H]1C5.Cl	–	0.19	–	–	–	ED50 (Mus musculus [7]): 0.2 mg/kg
Cl.O=C1CC[C@@]2(O)[C@H]3Cc4ccc(O)c5c4[C@@]2(CCN3CC2CC2)[C@H]1O5 [NALTREXONE HYDROCHLORIDE]	–	–	–	–	0.007	–
